The record followed here is US20090176755A1, “PHARMACEUTICAL COMPOSITIONS COMPRISING AN ANTIBIOTIC” (priority 2005, published 2009).

The data set is described as follows: Exposure of form B crystals to high relative humidity or water (polymorphic transformation). The format is physicochemical. From the text:
Usually minutes of exposure to high humidity and seconds of exposure to water, such as within an suspension, are sufficient for this transformation. Such conditions are for example found during pharmaceutical production in countries with a humid climate.

As to `C=CC1=C(C(=O)O)N2C(=O)C(NC(=O)C(=NO)c3csc(N)n3)[C@H]2SC1` (stereo partly drawn) [crystalline form B of cefdinir, 7-[2-(2-aminothiazol-4-yl)-2-hydroxyiminoacetamido]-3-vinyl-3-cephem-4-carboxylic acid], the “exposure time sufficient for transformation into a different polymorphic form” value (exposure to high humidity) is “minutes” and the “exposure time sufficient for transformation into a different polymorphic form” value (exposure to water, such as within a suspension) was “seconds”. For the same compound, the “relative humidity at which form B transforms into a different polymorphic form with reduced stability” value (form B crystals exposed to humid conditions) is “higher than 65%”.
